Literature values in US20260232685A1, “TRANSDERMAL PERMEATION ENHANCING COMPOSITION AND APPLICATION THEREOF IN TIMOLOL PREPARATION” (WUHAN CONFORM PHARMACEUTICAL CO., LTD., priority 2019, published 2026).

Conditions: absorbed by the gastrointestinal tract; J. Pharm. Pharmacol., 1978, 30, 53

Hepatic first-pass effect and metabolism at other sites, share of the total dose: about 34%
SMILES: CC(C)(C)NC[C@H](O)COc1nsnc1N1CCOCC1 [timolol]
